Data from US4287201A, “Anovulatory method and chicken feed compositions” (Merck & Co., Inc., priority 1980, dated 1981).
Read-outs that look alike come from different tables or passages of the source.

Assays:
laying hens [1] = assay: Antigonadal Activity (ED20): ovarian weight of prime laying hens fed medicated diet for one week; type: in vivo, laying hens (chicken); settings: medicated diet for seven days, based on at least 8 hens at 2 dose levels
Method: Antigonadal Activity--(ED20)
Prime laying hens (7-12 months), whose egg production has been documented during the preceding 2 weeks, are fed medicated diet for one week at various dose levels. At the conclusion of the one week test, the hens are sacrificed and their reproductive system is excised, examined and weighed. The seven day medication level producing a 20 g ovarian weight, based on at least 8 hens at 2 dose levels is calculated and recorded as ED20.
*Seven day medication level producing a 20 g ovarian weight in laying hen
(based on at least 8 hens at 2 dose levels)

laying hens [2] = assay: Anovulatory Activity (EPI): egg production of prime laying hens fed medicated diet; type: in vivo, laying hens (chicken); settings: Gallus gallus, 192 h, read-out: EPI: Egg Production Index, % of control egg production for days 5 through 8
Method: Anovulatory Activity--(EPI)
Prime laying hens (7-12 months), whose egg production has been documented during the preceding 2 weeks, are fed diet containing medication at 100 ppm for 8 days. Egg production is recorded for days 5 through 8 while the birds are on test, and the Egg Production Index (EPI) is calculated as the % of control egg production for days 5 through 8 inclusive after start of oral medication at 100 ppm.
**Egg Production Index, % of control egg production for days 5 through 8
inclusive after start of oral medication at 100 ppm

Row | SMILES | ED20: seven day medication level producing a 20 g ovarian weight in laying hen (laying hens [1]) [ppm] | response vs control in vivo at 100 ppm, 100 µg/mL (laying hens [2]; po) [%] | response vs control in vivo at 100 ppm, 100 µg/mL (laying hens [2]; hens, oral medication in diet at 100 ppm for 8 days, days 5 through 8 inclusive) [%]
1 | Cc1cccc(C)c1N=C1NCCN1 [compound 1, 2-(2,6-dimethylphenylimino)imidazolidine] | 38 | 18 | –
2 | Cc1c(Cl)cccc1N=C1NCCN1 [compound 2, 2-(3-chloro-2-methylphenylimino)imidazolidine] | 38 | 26 | –
3 | Cc1cccc(Cl)c1N=C1NCCN1 [compound 3, 2-(6-chloro-2-methylphenylimino)imidazolidine] | 40 | 16 | –
4 | Cc1ccc(N=C2NCCN2)c(C)c1 [compound 4] | 50 | 24 | –
5 | Cc1cc(Cl)ccc1N=C1NCCN1 [compound 5, 2-(4-chloro-2-methylphenylimino)imidazolidine] | 53 | 24 | –
6 | Cc1cc(C)c(N=C2NCCN2)c(C)c1 [compound 6, 2-(2,4,6-Trimethylphenylimino)imidazolidine] | 54 | 31 | –
7 | Cc1cc(Br)ccc1N=C1NCCN1 [compound 7] | 56 | 24 | –
8 | Cc1ccc(F)cc1N=C1NCCN1 [compound 8, 2-(5-fluoro-2-methylphenylimino)imidazolidine] | 67 | 24 | –
9 | Cc1ccccc1N=C1NCCN1 [compound 9] | 69 | 8 | –
10 | CCc1ccccc1N=C1NCCN1 [compound 10] | 83 | 31 | –
11 | CCc1cccc(CC)c1N=C1NCCN1 [compound 11] | 151 | 31 | –
12 | Cc1cccc(N=C2NCCN2)c1C [compound 12] | 181 | 86 | –
13 | Clc1ccccc1N=C1NCCN1 [compound 13, 2-(2-chlorophenylimino)imidazolidine] | 217 | 31 | –
14 | Cc1ccc(C)c(N=C2NCCN2)c1 [compound 14] | 250 | 70 | –
15 | Clc1cccc(Cl)c1N=C1NCCN1 [compound 15] | 400 | – | 70
